Patent US20230372318A1, “METHODS FOR TREATING A SUBJECT HAVING MULTIPLE SYSTEM ATROPHY” (Theravance Biopharma R&D IP, LLC, priority 2022, published 2023)

Test system: subjects with primary autonomic failures (MSA, PD, or PAF) and symptomatic nOH
Test: Phase 3 22-week randomized withdrawal study in symptomatic nOH (Example 7)
Type: in vivo, human
Parameters: OHSA composite score, LS Mean / OHSA composite score, Mean / OHSA composite score, Median / OHSA composite score, LS Mean Difference / OHDAS item 1 (standing for a short time) score, Mean / OHDAS item 1 (standing for a short time) score, Median / OHDAS item 1 (standing for a short time) score, LS Mean / OHDAS item 1 (standing for a short time) score, LS Mean Difference: scale not given here
Details: MSA subjects; for OHSA composite score, LS Mean / OHSA composite score, Mean / OHSA composite score, Median / OHSA composite score, LS Mean Difference: change at week 22, end of 6-week double-blind period; for OHSA composite score, LS Mean Difference / OHDAS item 1 (standing for a short time) score, LS Mean Difference: vs placebo; for OHDAS item 1 (standing for a short time) score, LS Mean / OHDAS item 1 (standing for a short time) score, Mean / OHDAS item 1 (standing for a short time) score, Median / OHDAS item 1 (standing for a short time) score, LS Mean Difference: week 22, end of 6-week double-blind period
Procedure: The study consisted of a 16-week open-label (OL) treatment period with ampreloxetine followed by a 6-week double-blind randomized withdrawal period where subjects were administered either ampreloxetine or placebo.
Eligible subjects were either (i) completers of the study of Example 6 (“Completers Group”), or (ii) symptomatic nOH subjects meeting all applicable study inclusion criteria and none of the applicable exclusion criteria (“De Novo Group”).
A 4-week screening period applied to the De Novo Group only and the Screening visit was conducted in clinic for all De Novo Group subjects.
A total of 203 subjects entered this study (170 subjects from Example 6 (85 from the ampreloxetine group and 85 from the placebo group) and 33 de novo subjects). During the OL period, 55 subjects discontinued treatment. At 16 weeks, 64 subjects were randomized to the ampreloxetine group (6 subjects discontinued the study) and 64 subjects were randomized to the placebo group (3 subjects discontinued the study). A total of 119 subjects completed the study. Of the 128 subjects entering the randomized period, 40 subjects had MSA (31%); 68 subjects had PD (53%); and 20 subjects had PAF (16%) (in each category, the subjects were split equally between ampreloxetine and placebo).
Beginning on Day 2, subjects received a single dose of 10 mg ampreloxetine once daily (QD) and continued thereafter for the 16-week duration of the OL treatment period. Following this 16-week OL treatment period, subjects were randomized to either continue on the active treatment or placebo (“PBO”) for a period of 6 weeks.
Subjects enrolled into the OL period of the study had visits scheduled for Day 15, Day 29, and every 4 weeks thereafter for assessments as outlined in the Schedule of Study Procedures. […] Those subjects not meeting this continuation criterion were discontinued and underwent an end of study visit. The end of study visit was completed within 2 weeks from the date of the last dose.
Following the completion of a total of 16 weeks OL treatment with ampreloxetine (V6), subjects were assessed for randomization in a 1:1 manner. Eligible subjects received 6 weeks of double-blind treatment of ampreloxetine or PBO once daily. Only subjects with OHSA #1 score of ≤7 were eligible for randomization for the double-blind treatment period.
Exploratory assessments included: orthostatic standing test; NMSS; EQ-5D-5L; HADS; and BSFC-s. For subjects with PD, exploratory assessments included: Unified Parkinson's Disease Rating Scale (UPDRS); and Parkinson's Disease Questionaire-8 (PDQ-8). For subjects with MSA, exploratory assessments included: Unified Multiple System Atrophy Rating Scale (UMSARS); and Composite Autonomic Symptom Score-31 (COMPASS-31).
The secondary endpoints included: • (a) Change from baseline in OHSA #1 at Week 6 post randomization (V9, D155); • (b) Change from baseline in OHSA composite score at Week 6 post randomization (V9, D155); • (c) Change from baseline in OHDAS composite score at Week 6 post randomization (V9, D155); • (d) Change from baseline in PGI-S at Week 6 post randomization (V9, D155); • (e) Change from baseline in percentage of time spent in standing position as measured by a wearable device at Week 6 post randomization (V9, D155); and • (f) Change from baseline in average number of steps taken as measured by a wearable device at Week 6 post randomization (V9, D155).

## Fc1cc(F)c(OCc2ccccc2C2CCNCC2)c(F)c1 [Ampreloxetine, 4-[2-(2,4,6-trifluorophenoxymethyl)phenyl]piperidine]
<65 Years
  OHSA composite score, LS Mean: 0.55
  OHSA composite score, Mean: 0.8
  OHSA composite score, Median: 0.4
  OHSA composite score, LS Mean Difference: −1.09
  OHDAS item 1 (standing for a short time) score, LS Mean: −0.5
  OHDAS item 1 (standing for a short time) score, Mean: 0.0
  OHDAS item 1 (standing for a short time) score, Median: 0.0
  OHDAS item 1 (standing for a short time) score, LS Mean Difference: −2.9
>=65 Years
  OHSA composite score, LS Mean: −0.60
  OHSA composite score, Mean: −0.75
  OHSA composite score, Median: −0.70
  OHSA composite score, LS Mean Difference: −2.17
  OHDAS item 1 (standing for a short time) score, LS Mean: −0.4
  OHDAS item 1 (standing for a short time) score, Mean: −0.3
  OHDAS item 1 (standing for a short time) score, Median: 0.0
  OHDAS item 1 (standing for a short time) score, LS Mean Difference: −1.0
Female
  OHSA composite score, LS Mean: 0.2078
  OHSA composite score, Mean: 0.23
  OHSA composite score, Median: 0.00
  OHSA composite score, LS Mean Difference: −1.3996
  OHDAS item 1 (standing for a short time) score, LS Mean: 0.2
  OHDAS item 1 (standing for a short time) score, Mean: 0.3
  OHDAS item 1 (standing for a short time) score, Median: 0.0
  OHDAS item 1 (standing for a short time) score, LS Mean Difference: −1.0
MSA diagnosis <1.3 years
  OHSA composite score, LS Mean: 0.73
  OHSA composite score, Mean: 0.67
  OHSA composite score, Median: 0.70
  OHSA composite score, LS Mean Difference: −1.24
  OHDAS item 1 (standing for a short time) score, LS Mean: 0.7
  OHDAS item 1 (standing for a short time) score, Mean: 0.1
  OHDAS item 1 (standing for a short time) score, Median: 0.0
  OHDAS item 1 (standing for a short time) score, LS Mean Difference: −2.7
MSA diagnosis >=1.3 years
  OHSA composite score, LS Mean: −0.67
  OHSA composite score, Mean: −0.64
  OHSA composite score, Median: −0.10
  OHSA composite score, LS Mean Difference: −1.78
  OHDAS item 1 (standing for a short time) score, LS Mean: −0.6
  OHDAS item 1 (standing for a short time) score, Mean: −0.4
  OHDAS item 1 (standing for a short time) score, Median: 0.0
  OHDAS item 1 (standing for a short time) score, LS Mean Difference: −0.7
MSA-C
  OHSA composite score, LS Mean: 1.10
  OHSA composite score, Mean: 0.76
  OHSA composite score, Median: 0.50
  OHSA composite score, LS Mean Difference: −0.68
  OHDAS item 1 (standing for a short time) score, LS Mean: 0.9
  OHDAS item 1 (standing for a short time) score, Mean: 0.7
  OHDAS item 1 (standing for a short time) score, Median: 0.0
  OHDAS item 1 (standing for a short time) score, LS Mean Difference: −1.0
MSA-P
  OHSA composite score, LS Mean: −0.50
  OHSA composite score, Mean: −0.39
  OHSA composite score, Median: 0.05
  OHSA composite score, LS Mean Difference: −1.72
  OHDAS item 1 (standing for a short time) score, LS Mean: −1.2
  OHDAS item 1 (standing for a short time) score, Mean: −0.7
  OHDAS item 1 (standing for a short time) score, Median: 0.0
  OHDAS item 1 (standing for a short time) score, LS Mean Difference: −2.7
Male
  OHSA composite score, LS Mean: −0.3923
  OHSA composite score, Mean: −0.46
  OHSA composite score, Median: 0.20
  OHSA composite score, LS Mean Difference: −1.8762
  OHDAS item 1 (standing for a short time) score, LS Mean: −1.2
  OHDAS item 1 (standing for a short time) score, Mean: −0.8
  OHDAS item 1 (standing for a short time) score, Median: 0.0
  OHDAS item 1 (standing for a short time) score, LS Mean Difference: −2.8
Overall
  OHSA composite score, Mean: −0.05
  OHSA composite score, Median: 0.05
  OHSA composite score, LS Mean Difference: −1.57
  OHDAS item 1 (standing for a short time) score, LS Mean: −0.4
  OHDAS item 1 (standing for a short time) score, Mean: −0.2
  OHDAS item 1 (standing for a short time) score, Median: 0.0
  OHDAS item 1 (standing for a short time) score, LS Mean Difference: −2.0
Overall, placebo 1.54, p=0.0056
  OHSA composite score, LS Mean: −0.03
Pre treatment baseline OHSA1 <7
  OHSA composite score, LS Mean: −0.22
